Target: T1, MhFPPS (MhIDS-2), full-length (Murgantia histrionica, UniProt A0A343W970)
T1 sequence (A0A343W970 1-405): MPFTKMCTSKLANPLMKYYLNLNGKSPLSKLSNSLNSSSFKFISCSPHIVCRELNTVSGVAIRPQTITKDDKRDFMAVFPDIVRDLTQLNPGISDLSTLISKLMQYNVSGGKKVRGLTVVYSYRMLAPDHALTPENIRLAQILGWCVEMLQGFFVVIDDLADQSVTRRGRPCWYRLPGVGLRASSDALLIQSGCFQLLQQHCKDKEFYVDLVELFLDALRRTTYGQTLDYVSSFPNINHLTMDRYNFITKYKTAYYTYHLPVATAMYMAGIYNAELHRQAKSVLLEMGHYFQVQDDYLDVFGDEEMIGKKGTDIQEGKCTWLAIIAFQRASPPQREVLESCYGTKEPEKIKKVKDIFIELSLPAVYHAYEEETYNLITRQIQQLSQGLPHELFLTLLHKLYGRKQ
Test: LC-MS/MS product assay
Assay type: biochemical

SMILES	LC-MS/MS product assay (co-substrate DMAPP)	LC-MS/MS product assay (co-substrate IPP)
C=C(C)CCOP(=O)(O)OP(=O)(O)O [IPP]	MhIDS-2 produced (E,E)-FPP from IPP and DMAPP	
CC(C)=CCOP(=O)(O)OP(=O)(O)O [DMAPP]		MhIDS-2 produced (E,E)-FPP from IPP and DMAPP

Source: PMC6140472 (Proceedings of the National Academy of Sciences of the …, 2018)
